Where two headings read alike, the source gives them in different places. Non-standard residues stand in square brackets, D forms with d. Residues, ends and D or L forms follow the SMILES beside them. No end group written: not given here. *: point of attachment. Palmitoyl = CCCCCCCCCCCCCCCC(=O)*
How the values were obtained:
human MC1 receptor = molecular target: T1, human MC1 receptor (Homo sapiens, UniProt Q01726); experiment: Inhibition of AMPc production induced by α-MSH on M4Be cells; format: cell-based; conditions: M4Be human cell line, 5×10^−8 M α-MSH
T1 construct: endogenous in cells; host or cells: M4Be human melanoma (melanocyte) cell line
Procedure: Five Palm-dipeptides according to this invention were introduced at different concentrations and each measurement was made in triplicate. Two or three series of experiments were made.
The M4Be human cell line (Jacubovich et al. Cancer Immunol. Immunother. 1979, 7, 59-64), a melanocytes cell line capable of producing melanines, was used in this study to determine the values of CI50.
The cells were maintained in the Dulbecco modified Eagle medium with 10% of foetal calf serum (FCS), 1 mM of glutamine, 100 U/ml of penicillin and 10^−4 g/ml of streptomycine.
All cell lines were maintained at 37° C. in an atmosphere with 5% of CO2 and cell culture media were renewed every two days. The cells were applied in contact with a plate with 96 wells (Nunc, Roskilde) 24 hours before contact of dipeptides according to the invention.
Cells applied in contact the day before with 8×10^4 cells per well were put in the presence of one of the five dipeptide conjugates according to the invention at various concentrations for 10 minutes at 37° C. with 5×10^−8 M of α-MSH. After this time, the lysis of the cells was made and the AMPc content was measured using a connection test box by competition (RPN225, Amersham Pharmacia Biotech). Each independent experiment was carried out at least twice in triplicate.
The peptidic activity was determined with reference to the AMPc content synthesized by untreated cells and the production of AMPc induced by α-MSH alone. The curves were adjusted and the values of CI50 were determined with non-linear regression in the GraphPad Prism (GraphPad software, San Diego, Calif., United States).

receptor MC1 [1] = conditions: Jayawickreme et al., J. Biol. Chem. 1994; cited from earlier work
receptor MC1 [2] = conditions: Proc. Natl. Acad. Sci. (1995), 92, result in words; cited from earlier work
[3] = 10 minutes at 37° C., experiment 1, read-out: CI50 (μM) exp1
[4] = 10 minutes at 37° C., experiment 2, read-out: CI50 (μM) exp2
[5] = 10 minutes at 37° C., experiment 3, read-out: CI50 (μM) exp3
[6] = average of the experiments, read-out: CI50 (μM) aver.

T1 sequence (Q01726 whole entry): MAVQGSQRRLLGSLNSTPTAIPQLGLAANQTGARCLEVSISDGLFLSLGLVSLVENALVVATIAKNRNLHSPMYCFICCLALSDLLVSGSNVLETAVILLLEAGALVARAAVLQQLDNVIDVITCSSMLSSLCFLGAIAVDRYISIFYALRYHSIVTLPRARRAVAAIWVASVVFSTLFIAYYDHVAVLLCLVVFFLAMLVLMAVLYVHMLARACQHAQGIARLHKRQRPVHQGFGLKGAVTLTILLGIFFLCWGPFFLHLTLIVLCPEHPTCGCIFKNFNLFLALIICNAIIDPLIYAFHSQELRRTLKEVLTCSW

**Q.** For CCCCCCCCCCCCCCCC(=O)N[C@@H](CCCNC(=N)N)C(=O)N[C@@H](Cc1c[nH]cn1)C(N)=O [Compound 39, Palm-Arg-His-NH2] (Palmitoyl-Arg-His-NH2), which IC50 (human MC1 receptor; [3]) is on record?
**A.** 29 µM

**Q.** And the IC50 (human MC1 receptor; [4])?
**A.** 4.6 µM

**Q.** What about the IC50 (human MC1 receptor; [5]) of the same compound?
**A.** 4.4 µM

**Q.** And the IC50 (human MC1 receptor; [6])?
**A.** 13 µM

**Q.** Which IC50 (human MC1 receptor; [3]) does the source give for CCCCCCCCCCCCCCCC(=O)N[C@@H](CCCNC(=N)N)C(=O)N[C@@H](CCCNC(=N)N)C(N)=O [Compound 41, Palm-Arg-Arg-NH2] (Palmitoyl-Arg-Arg-NH2) here?
**A.** 36 µM

**Q.** What about the IC50 (human MC1 receptor; [4]) of the same compound?
**A.** 17 µM

**Q.** What about the IC50 (human MC1 receptor; [6]) of the same compound?
**A.** 26 µM

**Q.** Which IC50 (human MC1 receptor; [3]) does the source give for CCCCCCCCCCCCCCCC(=O)N[C@@H](CCCNC(=N)N)C(=O)N1CCC[C@H]1C(N)=O [Compound 49, Palm-Arg-Pro-NH2] (Palmitoyl-Arg-Pro-NH2) here?
**A.** 20 µM

**Q.** What about the IC50 (human MC1 receptor; [4]) of the same compound?
**A.** 26 µM

**Q.** What about the IC50 (human MC1 receptor; [6]) of the same compound?
**A.** 23 µM

**Q.** What does the source list for CCCCCCCCCCCCCCCC(=O)N[C@@H](CCCNC(=N)N)C(=O)N[C@@H](CCCCN)C(N)=O [Compound 50, Palm-Arg-Lys-NH2] (Palmitoyl-Arg-Lys-NH2)?
**A.** IC50 (human MC1 receptor; [3]): 48 µM; IC50 (human MC1 receptor; [4]): 9.6 µM; IC50 (human MC1 receptor; [6]): 29 µM

**Q.** For CCCCCCCCCCCCCCCC(=O)N[C@@H](CO)C(=O)N1CCC[C@H]1C(N)=O [Compound 125, Palm-Ser-Pro-NH2] (Palmitoyl-Ser-Pro-NH2), which IC50 (human MC1 receptor; [3]) is on record?
**A.** 45 µM

**Q.** And the IC50 (human MC1 receptor; [4])?
**A.** 5.5 µM

**Q.** What about the IC50 (human MC1 receptor; [5]) of the same compound?
**A.** 1 µM

**Q.** And the IC50 (human MC1 receptor; [6])?
**A.** 17 µM

**Q.** Which Ki (receptor MC1 [1]) does the source give for H-MP[dF]R[dW]FKPV-NH2 [153 N-6] here?
**A.** 0.011 µM

**Q.** Which antagonist activity (receptor MC1 [2]) does the source give for [dW]-Arg-Leu-NH2 here?
**A.** has an antagonist activity
